Test results as given in patent publication US8846673B2, “Azaindazoles as kinase inhibitors and use thereof” (Bristol-Myers Squibb Company, priority 2009, dated 2014).

Experiments:
human recombinant Btk = human recombinant Btk (Homo sapiens (Human), UniProt Q06187); test: Human Recombinant Btk Enzyme Assay (LLE_Btk); type: biochemical; details: human recombinant Btk 1 nM, ATP 20 μM, 60 min room temperature
Experimental: Human Recombinant Btk Enzyme Assay
After incubating at room temperature for 60 min, the reaction was terminated by adding 45 μl of 35 mM EDTA to each sample. The reaction mixture was analyzed on the Caliper LABCHIP® 3000 (Caliper, Hopkinton, Mass.) by electrophoretic separation of the fluorescent substrate and phosphorylated product. […] Compounds were dissolved at 10 mM in dimethylsulfoxide (DMSO) and evaluated at eleven concentrations.

[1] = target: Btk (pY551) in Ramos cells (Homo sapiens (Human), UniProt Q06187); test: Btk Phosphorylation Assay; type: cell-based; details: 1 hr preincubation, stimulated with anti-human IgM+IgG 50 μg/mL for 2 min
Btk (pY551) in Ramos cells, sequence (Q06187 whole entry): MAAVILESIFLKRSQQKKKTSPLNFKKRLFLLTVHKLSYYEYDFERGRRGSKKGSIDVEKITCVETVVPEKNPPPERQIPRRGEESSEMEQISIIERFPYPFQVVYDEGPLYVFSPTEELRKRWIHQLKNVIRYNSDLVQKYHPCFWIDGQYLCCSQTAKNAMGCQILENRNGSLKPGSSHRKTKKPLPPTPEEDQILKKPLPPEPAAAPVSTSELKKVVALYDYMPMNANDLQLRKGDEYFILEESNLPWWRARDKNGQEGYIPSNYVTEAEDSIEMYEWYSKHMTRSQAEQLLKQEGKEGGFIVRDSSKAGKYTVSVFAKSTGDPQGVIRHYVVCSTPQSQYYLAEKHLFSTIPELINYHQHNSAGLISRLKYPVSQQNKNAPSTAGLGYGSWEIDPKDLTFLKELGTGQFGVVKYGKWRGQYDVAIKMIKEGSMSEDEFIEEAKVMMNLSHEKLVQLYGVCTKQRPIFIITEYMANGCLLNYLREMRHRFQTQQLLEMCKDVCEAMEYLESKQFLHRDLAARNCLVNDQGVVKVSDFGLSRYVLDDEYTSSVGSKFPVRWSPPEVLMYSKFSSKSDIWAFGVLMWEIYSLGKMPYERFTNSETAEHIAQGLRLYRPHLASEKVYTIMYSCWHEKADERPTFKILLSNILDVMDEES
Experimental: Btk Phosphorylation Assay
Ramos cells (˜6×10^6 cells/10 were incubated in the presence of Btk inhibitors for 1 hr at 37° C. before being stimulated with anti-human IgM+IgG (F(ab′)2 fragment, Jackson ImmunoResearch, Catalog No. 109-006-127) at 50 μg/mL for exactly 2 min at 37° C. Cells were immediately fixed by adding an equal volume of pre-warmed BD Phosflow Fix buffer I (BD Biosciences, catalog number 557870) to the cell suspension. After incubating at 37° C. for 10 minutes, the cells were washed once with 3 mL FACS washing buffer (1% FBS/PBS) and permeabilized by adding 0.5 mL of cold BD Phosflow Penn Buffer III (BD Biosciences, Catalog No. 558050) and incubating for 30 minutes on ice. The cells were washed an additional two times with 3 mL BD FACS washing buffer, re-suspended in 100 μL FACS washing buffer, stained with 20 μL, Alexa647 anti-Btk (pY551) (BD Biosciences, Catalog No. 558134), incubated at room temperature for 30 minutes in the dark, and washed once with 3 ml of FACS washing buffer. The cells were re-suspended in 400 μl FACS wash buffer and analyzed using FACSCalibur (BD Biosciences). Median fluorescent intensity (MFI) on Alexa 647 (FL-4) data were collected and used for calculations of inhibition.

human recombinant Btk, sequence (Q06187 whole entry): as above

| IC50 (human recombinant Btk) [nM] | IC50 [1] [nM] | SMILES |
| --- | --- | --- |
| 290 | – | Cc1cccc(Oc2ccc(-c3cc(C4CCCC4)nc4[nH]nc(N)c34)cc2)c1 [Example 5, 6-Cyclopentyl-4-(4-(3-methylphenoxy)phenyl)-1H-pyrazolo[3,4-b]pyridin-3-amine] |
| – | 320 | Nc1n[nH]c2nccc(-c3ccc(Oc4ccccc4)cc3)c12 [Example 6, 4-(4-Phenoxyphenyl)-1H-pyrazolo[3,4-b]pyridin-3-amine] |
| 9410 | – | Cc1csc(NC(=O)NC2CCN(c3cc(-c4ccc(Oc5ccccc5)cc4)c4c(N)n[nH]c4n3)C2)n1 (stereo not drawn) [Example 31, 1-(1-(3-Amino-4-(4-phenoxyphenyl)-1H-pyrazolo[3,4-b]pyridin-6-yl)-3-pyrrolidinyl)-3-(4-methyl-1,3-thiazol-2-yl)urea] |
| 9310 | – | CC(C)Oc1ccc(-c2cncc3[nH]nc(N)c23)cc1 [Example 43, 4-(4-Isopropoxyphenyl)-1H-pyrazolo[3,4-c]pyridin-3-amine] |
| 9490 | – | Nc1n[nH]c2cncc(-c3ccc(OC4CCCC4)cc3)c12 [Example 44, 4-(4-(Cyclopentyloxy)phenyl)-1H-pyrazolo[3,4-c]pyridin-3-amine] |
| 40600 | – | Nc1n[nH]c2cncc(-c3ccc(C(=O)N4CCCC4)cc3)c12 [Example 47, 4-(4-(1-Pyrrolidinylcarbonyl)phenyl)-1H-pyrazolo[3,4-c]pyridin-3-amine] |
| 14900 | – | Nc1n[nH]c2c(-c3ccc(NC(=O)c4ccccc4)cc3)ncc(-c3ccc(Oc4ccccc4)cc3)c12 [Example 61, N-(4-(3-Amino-4-(4-phenoxyphenyl)-1H-pyrazolo[3,4-c]pyridin-7-yl)phenyl)benzamide] |
| 270 | – | CS(=O)(=O)Nc1cccc(-c2ncc(-c3ccc(Oc4ccccc4)cc3)c3c(N)n[nH]c23)c1 [Example 62, N-(3-(3-Amino-4-(4-phenoxyphenyl)-1H-pyrazolo[3,4-c]pyridin-7-yl)phenyl) methanesulfonamide] |
| 9180 | – | Nc1n[nH]c2c(-c3ccc(Cl)c(Cl)c3)ncc(-c3ccc(Oc4ccccc4)cc3)c12 [Example 82, 7-(3,4-Dichlorophenyl)-4-(4-phenoxyphenyl)-1H-pyrazolo[3,4-c]pyridin-3-amine] |
| 250 | – | Nc1n[nH]c2c(-c3ccc4[nH]ccc4c3)ncc(-c3ccc(Oc4ccccc4)cc3)c12 [Example 95, 7-(1H-Indol-5-yl)-4-(4-phenoxyphenyl)-1H-pyrazolo[3,4-c]pyridin-3-amine] |
| 280 | – | CS(=O)(=O)Nc1ccc(-c2ncc(-c3ccc(Oc4ccccc4)cc3)c3c(N)n[nH]c23)cc1 [Example 96, N-(4-(3-Amino-4-(4-phenoxyphenyl)-1H-pyrazolo[3,4-c]pyridin-7-yl)phenyl)methanesulfonamide] |
| 12700 | – | Cc1ccccc1-c1ncc(-c2ccc(Oc3ccccc3)cc2)c2c(N)n[nH]c12 [Example 107, 7-(2-Methylphenyl)-4-(4-phenoxyphenyl)-1H-pyrazolo[3,4-c]pyridin-3-amine] |
| 16100 | – | Nc1n[nH]c2c(-c3cccc(C(F)(F)F)c3)ncc(-c3ccc(Oc4ccccc4)cc3)c12 [Example 108, 4-(4-Phenoxyphenyl)-7-(3-(trifluoromethyl)phenyl)-1H-pyrazolo[3,4-c]pyridin-3-amine] |
| 13800 | – | Nc1n[nH]c2c(-c3cccc(OC(F)(F)F)c3)ncc(-c3ccc(Oc4ccccc4)cc3)c12 [Example 113, 4-(4-Phenoxyphenyl)-7-(3-(trifluoromethoxy)phenyl)-1H-pyrazolo[3,4-c]pyridin-3-amine] |
| 240 | – | Nc1n[nH]c2nc(-c3cccs3)nc(-c3ccc(Oc4ccccc4)cc3)c12 [Example 120, 4-(4-Phenoxyphenyl)-6-(2-thienyl)-1H-pyrazolo[3,4-δ]pyrimidin-3-amine] |
| 290 | – | COc1cccc(-c2cnc(Nc3ccccc3)c3[nH]nc(N)c23)c1 [Example 128, 4-(3-Methoxyphenyl)-N^7-phenyl-1H-pyrazolo[3,4-c]pyridine-3,7-diamine] |
| 230 | – | COc1cccc(-c2cnc(Nc3ccccc3Cl)c3[nH]nc(N)c23)c1 [Example 130, N^7-(2-Chlorophenyl)-4-(3-methoxyphenyl)-1H-pyrazolo[3,4-c]pyridine-3,7-diamine] |
| 260 | – | COc1ccc(-c2cnc(Nc3ccccc3C)c3[nH]nc(N)c23)cc1 [Example 132, 4-(4-Methoxyphenyl)-N^7-(2-methylphenyl)-1H-pyrazolo[3,4-c]pyridine-3,7-diamine] |
| 240 | – | Cc1ccccc1Nc1ncc(-c2cccc(OC(C)C)c2)c2c(N)n[nH]c12 [Example 137, 4-(3-Isopropoxyphenyl)-N^7-(2-methylphenyl)-1H-pyrazolo[3,4-c]pyridine-3,7-diamine] |
| 2 | – | Nc1n[nH]c2cc(-c3ccc(-c4nnn[nH]4)cc3)nc(-c3ccc(Oc4ccccc4)cc3)c12 [Example 223, 4-(4-Phenoxyphenyl)-6-(4-(1H-tetrazol-5-yl)phenyl)-1H-pyrazolo[4,3-c]pyridin-3-amine] |
| 1 | – | Nc1n[nH]c2c(-c3ccccn3)cnc(-c3ccc(Oc4ccccc4)cc3)c12 [Example 225, 4-(4-Phenoxyphenyl)-7-(2-pyridinyl)-1H-pyrazolo[4,3-c]pyridin-3-amine] |
| 3 | – | Nc1n[nH]c2cc(C3CCCN(C(=O)Nc4ccccc4)C3)nc(-c3ccc(Oc4ccccc4)cc3)c12 (stereo not drawn) [Example 236, 3-(3-Amino-4-(4-phenoxyphenyl)-1H-pyrazolo[4,3-c]pyridin-6-yl)-N-phenyl-1-piperidinecarboxamide] |
| 4 | – | C=CC(=O)N1CCCC(c2cc3[nH]nc(N)c3c(-c3ccc(Oc4ccccc4)cc3)n2)C1 (stereo not drawn) [Example 237, 6-(1-Acryloyl-3-piperidinyl)-4-(4-phenoxyphenyl)-1H-pyrazolo[4,3-c]pyridin-3-amine] |
| 2 | – | COC(=O)C(=O)N1CCCC(c2cc3[nH]nc(N)c3c(-c3ccc(Oc4ccccc4)cc3)n2)C1 (stereo not drawn) [Example 238, Methyl(3-(3-amino-4-(4-phenoxyphenyl)-1H-pyrazolo[4,3-c]pyridin-6-yl)-1-piperidinyl)(oxo)acetate] |
| 2 | – | Nc1n[nH]c2cc(C3CCN(C(=O)Nc4ccccc4)CC3)nc(-c3ccc(Oc4ccccc4)cc3)c12 [Example 242, 4-(3-Amino-4-(4-phenoxyphenyl)-1H-pyrazolo[4,3-c]pyridin-6-yl)-N-phenyl-1-piperidinecarboxamide] |
| 3 | – | CN(C)C(=O)Cn1ccc(Nc2cc3[nH]nc(N)c3c(-c3ccc(Oc4ccccc4)cc3)n2)n1 [Example 249, 2-(3-((3-Amino-4-(4-phenoxyphenyl)-1H-pyrazolo[4,3-c]pyridin-6-yl)amino)-1H-pyrazol-1-yl)-N,N-dimethylacetamide] |

| SMILES | IC50 (human recombinant Btk) [nM] | IC50 [1] [nM] |
| --- | --- | --- |
| CC(C)COc1cccc(-c2ncc(-c3ccc(Oc4ccccc4)cc3)c3c(N)n[nH]c23)c1 [Example 102, 7-(3-Isobutoxyphenyl)-4-(4-phenoxyphenyl)-1H-pyrazolo[3,4-c]pyridin-3-amine] | 14000 | – |
